Test results taken from patent US20260102359A1, “COMBINATION TREATMENT OF DERMAL AND TRANSDERMAL FIBROTIC DISEASES, DISORDERS AND ASSOCIATED PAIN AND INFLAMMATION” (ERESINA, LLC, priority 2022, published 2026).
Where a name gives a salt, the structure may show the parent alone.

These compounds were tested on hDMFa myofibroblast cells.

Compound | Compound Myofibroblast Cytotoxicity Activity
COc1cc2c(Oc3ccc4[nH]c(C)cc4c3F)ncnc2cc1OCCCN1CCCC1 [Cmpd 226, Cediranib (AZD217)] | ++++
CC1=C(C(=O)O)N2C(=O)[C@@H](NC(=O)[C@H](N)c3ccc(O)cc3)[C@H]2SC1 [Cmpd 227, Cefadroxil (hydrate)] | ++
Cc1nnc(SCC2=C(C(=O)O)N3C(=O)[C@@H](NC(=O)Cn4cnnn4)[C@H]3SC2)s1 [Cmpd 228, Cefazolin (sodium salt)] | +++
CO/N=C(\C(=O)N[C@@H]1C(=O)N2C(C(=O)OCOC(=O)C(C)(C)C)=C(C)CS[C@H]12)c1csc(N)n1.Cl [Cmpd 230, Cefetamet pivoxil hydrochloride] | +++++
O=C(O)C1=C(CSc2nnnn2CS(=O)(=O)O)CS[C@@H]2[C@H](NC(=O)[C@H](O)c3ccccc3)C(=O)N12 [Cmpd 232, Cefonicid (sodium salt)] | ++++
CO/N=C(\C(=O)N[C@@H]1C(=O)N2C(C(=O)O)=C(COC(C)=O)CS[C@H]12)c1csc(N)n1 [Cmpd 233, Cefotaxime (sodium salt)] | +++
CO[C@@]1(NC(=O)Cc2cccs2)C(=O)N2C(C(=O)O)=C(COC(N)=O)CS[C@@H]21 [Cmpd 234, Cefoxitin (sodium salt)] | +++++
CO/N=C(\C(=O)N[C@@H]1C(=O)N2C(C(=O)[O-])=C(CSC(=O)c3ccco3)CS[C@H]12)c1csc(N)n1.[Na+] [Cmpd 237, Ceftiofur sodium] | ++
CO/N=C(\C(=O)N[C@@H]1C(=O)N2C(C(=O)OC(C)OC(C)=O)=C(COC(N)=O)CS[C@H]12)c1ccco1 (stereo partly shown) [Cmpd 238, Cefuroxime axetil] | ++
O=C[C@H](O)[C@@H](O)[C@H](O[C@@H]1O[C@H](CO)[C@@H](O)[C@H](O)[C@H]1O)[C@H](O)CO [Cmpd 239, Cellobiose] | +++
COc1ccc2cc1Oc1ccc(cc1)C[C@H]1c3c(cc4c(c3Oc3cc5c(cc3OC)CCN(C)[C@@H]5C2)OCO4)CCN1C [Cmpd 241, Cepharanthine] | ++
C[C@H](CCC(=O)O)[C@H]1CC[C@H]2[C@@H]3[C@H](O)C[C@@H]4C[C@H](O)CC[C@]4(C)[C@H]3CC[C@]12C [Cmpd 245, Chenodeoxycholic Acid] | +++
CC(=O)O.CC(=O)O.NC(=N\CCCCCC/N=C(N)/N=C(\N)Nc1ccc(Cl)cc1)/N=C(\N)Nc1ccc(Cl)cc1 [Cmpd 247, Chlorhexidine diacetate] | +++++
N=C(NCCCCCCNC(=N)NC(=N)Nc1ccc(Cl)cc1)NC(=N)Nc1ccc(Cl)cc1.O=C(O)[C@H](O)[C@@H](O)[C@H](O)[C@H](O)CO.O=C(O)[C@H](O)[C@@H](O)[C@H](O)[C@H](O)CO [Cmpd 248, Chlorhexidine digluconate] | +++
[H]/N=C(\N/C(=N/[H])NCCCCCCNC(=N)NC(=N)Nc1ccc(Cl)cc1)Nc1ccc(Cl)cc1 [Cmpd 249, Chlorhexidine HCl] | +++++
CN(C)CCN(Cc1ccc(Cl)cc1)c1ccccn1 [Cmpd 250, Chloropyramine hydrochloride] | ++
Oc1c(Cl)cc(Cl)c2cccnc12 [Cmpd 251, Chloroxine] | ++++
CN(C)CCCN1c2ccccc2Sc2ccc(Cl)cc21 [Cmpd 253, Chlorpromazine HCl] | +++
CN(C)CC/C=C1/c2ccccc2Sc2ccc(Cl)cc21 [Cmpd 254, Chlorprothixene] | +++
CN(C)[C@@H]1C(O)=C(C(N)=O)C(=O)[C@@]2(O)C(O)=C3C(=O)c4c(O)ccc(Cl)c4[C@@](C)(O)[C@H]3C[C@@H]12 [Cmpd 256, Chlortetracycline HCl] | ++

Compound | Compound Myofibroblast Cytotoxicity Activity
C[N+](C)(C)CCO.O=C([O-])C(O)C(O)C(=O)O (stereo not shown) [Cmpd 257, Choline bitartrate] | +++
Cc1cc(C2CCCCC2)n(O)c(=O)c1 [Cmpd 258, Ciclopirox] | ++++
Cc1cc(C2CCCCC2)n(O)c(=O)c1.NCCO [Cmpd 259, Ciclopirox ethanolamine] | +++
CC1(C)C[C@@H]1C(=O)N/C(=C\CCCCSC[C@H](N)C(=O)O)C(=O)O [Cmpd 260, Cilastatin] | ++++
O=C(O)c1cc(-c2ccccc2)nc2ccccc12 [Cmpd 265, Cinchophen] | ++
O=C(O)C=Cc1ccccc1 [Cmpd 266, Cinnamic acid] | ++
O=C(O)c1cn(C2CC2)c2cc(N3CCNCC3)c(F)cc2c1=O [Cmpd 268, Ciprofloxacin (hydrochloride)] | ++
C[N+](C)(C)CCOP(=O)(O)OP(=O)([O-])OC[C@H]1O[C@@H](n2ccc(N)nc2=O)[C@H](O)[C@@H]1O [Cmpd 271, Citicoline (sodium salt)] | +++
O=C(O)CC(O)(CC(=O)O)C(=O)O [Cmpd 273, Citric acid] | ++++
CC[C@H]1OC(=O)[C@H](C)[C@@H](O[C@H]2C[C@@](C)(OC)[C@@H](O)[C@H](C)O2)[C@H](C)[C@@H](O[C@@H]2O[C@H](C)C[C@H](N(C)C)[C@H]2O)[C@](C)(OC)C[C@@H](C)C(=O)[C@H](C)[C@@H](O)[C@]1(C)O [Cmpd 274, Clarithromycin] | +++
Clc1ccc(Cn2c(CN3CCCC3)nc3ccccc32)cc1 [Cmpd 277, Clemizole hydrochloride] | ++
CC(C)(C)NCC(O)c1cc(Cl)c(N)c(Cl)c1 (stereo not shown) [Cmpd 278, Clenbuterol (hydrochloride)] | ++
CCCC(=O)OCOC(=O)C1=C(C)NC(C)=C(C(=O)OC)C1c1cccc(Cl)c1Cl (stereo not shown) [Cmpd 279, Clevidipine Butyrate] | ++
Oc1c(I)cc(Cl)c2cccnc12 [Cmpd 281, Clioquinol] | ++
O=P(O)(O)C(Cl)(Cl)P(=O)(O)O [Cmpd 282, Clodronate (sodium salt hydrate)] | +++
CC(C)/N=c1\cc2n(-c3ccc(Cl)cc3)c3ccccc3nc-2cc1Nc1ccc(Cl)cc1 [Cmpd 283, Clofazimine] | ++
CCN(CC)CCOc1ccc(C(=C(Cl)c2ccccc2)c2ccccc2)cc1 [Cmpd 284, Clomiphene citrate] | +++
CN(C)CCCN1c2ccccc2CCc2ccc(Cl)cc21 [Cmpd 285, Clomipramine HCl] | ++
Cc1cc(C(C#N)c2ccc(Cl)cc2)c(Cl)cc1NC(=O)c1cc(I)cc(I)c1[O-].[Na+] (stereo not shown) [Cmpd 288, Closantel Sodium] | +++
Clc1ccccc1C(c1ccccc1)(c1ccccc1)n1ccnc1 [Cmpd 289, Clotrimazole] | +++

Compound | Compound Myofibroblast Cytotoxicity Activity
O=C(c1ccc(F)c(F)c1Nc1ccc(I)cc1F)N1CC(O)([C@@H]2CCCCN2)C1 [Cmpd 290, Cobimetinib] | ++++
C=C1C(=O)O[C@@H]2/C=C(\C)CC/C=C(\C)CC[C@@H]12 [Cmpd 292, Costunolide] | +++
CN(CC(=O)O)C(=N)N.O [Cmpd 295, Creatine monohydrate] | ++
CC1(COc2ccc3c(c2)ncn3-c2ccc3cccc(N4CCC(N)CC4)c3n2)COC1 [Cmpd 296, Crenolanib (CP-868596)] | +++++
CC=CC(=O)N(CC)c1ccccc1C [Cmpd 298, Crotamiton] | ++
CN(C)c1ccc(C(=C2C=CC(=[N+](C)C)C=C2)c2ccc(N(C)C)cc2)cc1 [Cmpd 299, Crystal Violet] | +++
CC1CC(OC(=O)C(O)c2ccccc2)CC(C)(C)C1 (stereo not shown) [Cmpd 301, Cyclandelate] | +++
Nc1cc[nH]c(=O)n1 [Cmpd 304, Cytosine] | ++
O=C(CO)[C@@H](O)[C@H](O)[C@H](O)CO [Cmpd 305, D-(−)-Fructose] | ++
OC[C@H]1O[C@H](OC[C@H]2O[C@H](O[C@]3(CO)O[C@H](CO)[C@@H](O)[C@@H]3O)[C@H](O)[C@@H](O)[C@@H]2O)[C@H](O)[C@@H](O)[C@H]1O [Cmpd 308, D-(+)-Raffinose (hydrate)] | ++
CC(C)(C)c1nc(-c2cccc(NS(=O)(=O)c3c(F)cccc3F)c2F)c(-c2ccnc(N)n2)s1.CS(=O)(=O)O [Cmpd 311, Dabrafenib Mesylate (GSK-2118436)] | ++
COc1cc2ncnc(Nc3ccc(F)c(Cl)c3)c2cc1NC(=O)/C=C/CN1CCCCC1 [Cmpd 313, Dacomitinib (PF299804, PF299)] | +++
O=C1CN(/N=C/c2ccc(-c3ccc([N+](=O)[O-])cc3)o2)C(O)=N1 [Cmpd 320, Dantrolene, sodium salt] | ++++
CCOc1ccc(Cc2cc([C@@H]3O[C@H](CO)[C@@H](O)[C@H](O)[C@H]3O)ccc2Cl)cc1.C[C@H](O)CO.O [Cmpd 321, Dapagliflozin ((2S)-1,2-propanediol,hydrate)] | ++
CN(C)[C@@H](CCOc1cccc2ccccc12)c1ccccc1 [Cmpd 322, Dapoxetine HCl] | ++
Cc1nc(Nc2ncc(C(=O)Nc3c(C)cccc3Cl)s2)cc(N2CCN(CCO)CC2)n1 [Cmpd 326, Dasatinib (BMS-354825)] | +++
Cc1nc(Nc2ncc(C(=O)Nc3c(C)cccc3Cl)s2)cc(N2CCN(CCO)CC2)n1 [Cmpd 327, Dasatinib hydrochloride] | +++
Cc1nc(Nc2ncc(C(=O)Nc3c(C)cccc3Cl)s2)cc(N2CCN(CCO)CC2)n1.O [Cmpd 328, Dasatinib Monohydrate] | +++
